What follows are molecules tested against Histone deacetylase 2 (Homo sapiens, UniProt Q92769) (assay: Inhibition of full-length recombinant human C-terminal GST tagged HDAC2 expressed in Sf9 insect cells using aminoluciferin peptide substrate at 100 nM preincubated for 3 hrs followed by substrate addition and measured after 30 mins by HDAC-Glo I/II chemiluminescence assay). Details: time 3.5 hrs.
Sequence of Histone deacetylase 2 (Q92769 whole entry): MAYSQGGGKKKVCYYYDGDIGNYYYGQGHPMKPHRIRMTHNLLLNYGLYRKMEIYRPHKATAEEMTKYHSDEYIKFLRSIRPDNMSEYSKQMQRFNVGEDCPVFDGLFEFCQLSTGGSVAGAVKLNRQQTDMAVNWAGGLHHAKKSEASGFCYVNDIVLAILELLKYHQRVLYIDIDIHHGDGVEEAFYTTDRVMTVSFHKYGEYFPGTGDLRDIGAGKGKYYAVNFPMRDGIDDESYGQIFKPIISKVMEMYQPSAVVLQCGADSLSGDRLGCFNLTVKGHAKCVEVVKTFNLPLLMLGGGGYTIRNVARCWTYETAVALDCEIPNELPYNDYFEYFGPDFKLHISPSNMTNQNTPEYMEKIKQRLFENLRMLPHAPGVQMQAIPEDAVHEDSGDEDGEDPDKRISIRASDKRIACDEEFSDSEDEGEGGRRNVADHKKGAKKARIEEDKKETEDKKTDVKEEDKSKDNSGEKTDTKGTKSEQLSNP

SMILES | inhibition [%]
Nc1ccc(-n2cc(-c3ccc(C(=O)Nc4cc(-c5cccs5)ccc4N)s3)nn2)cc1 | 44
Nc1ccc(-c2ccccc2)cc1NC(=O)CCc1cn(CCCCCCC(=O)O)nn1 | 0
Nc1ccc(-c2cccs2)cc1NC(=O)CCc1cn(-c2ccccc2-c2ccccc2)nn1 | 0
Nc1ccc(-c2cccnc2)cc1NC(=O)CCc1cn(CCCCCCC(=O)O)nn1 | 0
Nc1ccc(-c2cccs2)cc1NC(=O)c1ccc(-c2cn(Cc3cccc(-c4ccccc4)c3)nn2)s1 | 0
Nc1ccc(-c2cccs2)cc1NC(=O)CCc1cn(CCc2cccc(Cl)c2)nn1 | 9
Nc1ccc(-c2cccs2)cc1NC(=O)c1ccc(-c2cn(C[S+]([O-])c3ccccc3)nn2)s1 (centres undefined) | 60
Nc1ccc(-c2cccs2)cc1NC(=O)c1ccc(-c2cn(CCc3ccccc3C(F)(F)F)nn2)cc1 | 0
Nc1ccc(-c2ccccc2)cc1NC(=O)c1cn(-c2cccc3ccccc23)nn1 | 0
Nc1ccc(-c2ccccc2)cc1NC(=O)CCc1cn(Cc2cccc(-c3ccccc3)c2)nn1 | 0
Nc1ccc(-c2ccccc2)cc1NC(=O)c1cn(-c2ccc([N+](=O)[O-])cc2)nn1 | 0
Nc1ccc(-c2cccnc2)cc1NC(=O)CCc1cn(CCCCCCCC(=O)O)nn1 | 0
Nc1ccc(-c2cccs2)cc1NC(=O)c1cccc(-c2cn(/C=C/c3ccccc3)nn2)c1 | 10
Cc1ccccc1CCn1cc(-c2ccc(C(=O)Nc3cc(-c4cccs4)ccc3N)cc2)nn1 | 0
Cc1csc(CCn2cc(-c3ccc(C(=O)Nc4cc(-c5cccs5)ccc4N)s3)nn2)n1 | 74
Nc1ccc(-c2ccccc2)cc1NC(=O)CCc1cn(CCc2ccsc2)nn1 | 0
Nc1ccc(-c2cccs2)cc1NC(=O)c1ccc(-c2cn(CCc3cccc4ccccc34)nn2)s1 | 0
Cc1ccc(-n2cc(C(=O)Nc3cc(-c4ccccc4)ccc3N)nn2)cc1C | 0
Nc1ccc(-c2cccs2)cc1NC(=O)c1ccc(-c2cn(/C=C/c3ccccc3)nn2)s1 | 5
Nc1ccc(-c2cccs2)cc1NC(=O)c1ccc(-c2cn(CCC3CCCC3)nn2)s1 | 0

SMILES | inhibition [%]
COc1ccc(-n2cc(CCC(=O)Nc3cc(-c4ccccc4)ccc3N)nn2)cc1 | 11
Nc1ccc(-c2cccs2)cc1NC(=O)CCc1cn(Cc2ccc3ccccc3n2)nn1 | 22
COc1ccc(-n2cc(-c3ccc(C(=O)Nc4cc(-c5cccs5)ccc4N)cc3)nn2)cc1 | 0
COc1ccc(-n2cc(CCC(=O)Nc3cc(-c4cccs4)ccc3N)nn2)cc1 | 14
Nc1ccc(-c2cccs2)cc1NC(=O)c1ccc(-c2cn(CCc3ccc([N+](=O)[O-])cc3)nn2)s1 | 23
Nc1ccc(-c2cccs2)cc1NC(=O)c1ccc(-c2cn(Cc3ccc(-c4ccccc4)cc3)nn2)s1 | 0
Nc1ccc(-c2cccs2)cc1NC(=O)c1ccc(-c2cn(CC(=O)c3ccccc3)nn2)cc1 | 61
Nc1ccc(-c2cccs2)cc1NC(=O)c1ccc(-c2cn(-c3ccc(I)cc3)nn2)cc1 | 0
Nc1ccc(-c2ccccc2)cc1NC(=O)CCc1cn(CCc2ccc(F)cc2)nn1 | 9
Nc1ccc(-c2cccs2)cc1NC(=O)c1cccc(-c2cn(CS(=O)(=O)c3ccccc3)nn2)c1 | 3
Nc1ccc(-c2cccs2)cc1NC(=O)c1ccc(-c2cn(-c3ccccc3-c3ccccc3)nn2)cc1 | 0
Cc1cccc(C)c1NC(=O)Cn1cc(CCC(=O)Nc2cc(-c3ccsc3)ccc2N)nn1 | 18
Cc1ccc(CCn2cc(CCC(=O)Nc3cc(-c4ccc(F)cc4)ccc3N)nn2)cc1 | 25
Nc1ccc(-c2cccs2)cc1NC(=O)c1cccc(-c2cn(-c3ccc(Br)cc3)nn2)c1 | 0
Nc1ccc(-n2cc(CCC(=O)Nc3cc(-c4cccs4)ccc3N)nn2)cc1 | 25
Nc1ccc(-c2cccnc2)cc1NC(=O)CCc1cn(Cc2ccc(Oc3ccccc3)cc2)nn1 | 0
Nc1ccc(-c2ccccc2)cc1NC(=O)c1cn(CCCCCc2ccccc2)nn1 | 0
Nc1ccc(-c2cccs2)cc1NC(=O)c1ccc(-c2cn(CCc3cccc(Cl)c3)nn2)cc1 | 22
Nc1ccc(-c2cccs2)cc1NC(=O)c1cn(CCC23CC4CC(CC(C4)C2)C3)nn1 | 2
Nc1ccc(-c2cccs2)cc1NC(=O)c1ccc(-c2cn(CCc3cccc(F)c3)nn2)cc1 | 22

SMILES | inhibition [%]
Nc1ccc(-c2cccnc2)cc1NC(=O)CCc1cn(-c2ccc([N+](=O)[O-])cc2)nn1 | 2
Cc1cccc(C)c1NC(=O)Cn1cc(C(=O)Nc2cc(-c3ccc(F)cc3)ccc2N)nn1 | 33
Nc1ccc(-c2cccnc2)cc1NC(=O)CCc1cn(CCCCCC(=O)O)nn1 | 0
Nc1ccc(-c2ccccc2)cc1NC(=O)CCc1cn(Cc2ccc3ccccc3c2)nn1 | 11
Nc1ccc(-c2ccsc2)cc1NC(=O)CCc1cn(CCN2CCOCC2)nn1 | 0
Nc1ccc(-c2cccs2)cc1NC(=O)CCc1cn(CCc2ccccc2Cl)nn1 | 5
Nc1ccc(-c2cccs2)cc1NC(=O)c1cccc(-c2cn(CCC3CCCC3)nn2)c1 | 0
Nc1ccc(-c2ccc(F)cc2)cc1NC(=O)c1cn(CCN2CCOCC2)nn1 | 10
Nc1ccc(-c2ccc(F)cc2)cc1NC(=O)c1cn(CCc2cccc3ccccc23)nn1 | 0
Nc1ccc(-c2cccs2)cc1NC(=O)c1cccc(-c2cn(CCc3c[nH]c4ccccc34)nn2)c1 | 6
Nc1ccc(-c2ccsc2)cc1NC(=O)CCc1cn(CCN2CCc3ccccc3C2)nn1 | 18
Nc1ccc(-c2cccs2)cc1NC(=O)CCc1cn(Cc2nc3ccccc3[nH]2)nn1 | 19
Nc1ccc(-c2cccs2)cc1NC(=O)c1cccc(-c2cn(CCCCCCCC(=O)O)nn2)c1 | 3
COc1ccccc1CCn1cc(CCC(=O)Nc2cc(-c3cccnc3)ccc2N)nn1 | 10
Nc1ccc(-c2cccs2)cc1NC(=O)c1ccc(-c2cn(Cc3cccc(-c4ccccc4)c3)nn2)cc1 | 0
Nc1ccc(-c2ccc(F)cc2)cc1NC(=O)c1cn(CCN2CCc3ccccc3C2)nn1 | 22
Nc1ccc(-c2cccs2)cc1NC(=O)c1ccc(-c2cn(-c3ccc(O)cc3)nn2)cc1 | 16
Nc1ccc(-c2cccnc2)cc1NC(=O)CCc1cn(-c2ccc(I)cc2)nn1 | 1
Nc1ccc(-c2cccs2)cc1NC(=O)c1cccc(-c2cn(CCc3ccc([N+](=O)[O-])cc3)nn2)c1 | 1

Results, then the molecule that gave them:

inhibition [%] | SMILES
2 | Nc1ccc(-c2ccsc2)cc1NC(=O)c1cn(-c2ccc(O)cc2)nn1
15 | Nc1ccc(-c2cccs2)cc1NC(=O)c1cn(CC(=O)c2ccccc2)nn1
0 | Cc1ccc(-n2cc(C(=O)Nc3cc(-c4ccsc4)ccc3N)nn2)cc1C
0 | CCc1ccc(Cn2cc(-c3cccc(C(=O)Nc4cc(-c5cccs5)ccc4N)c3)nn2)cc1
0 | Cc1ccccc1CCn1cc(C(=O)Nc2cc(-c3cccs3)ccc2N)nn1
0 | Nc1ccc(-c2ccccc2)cc1NC(=O)c1cn(CCc2ccc(F)cc2)nn1
0 | Nc1ccc(-c2cccs2)cc1NC(=O)c1cn(CCc2ccc(F)cc2)nn1
0 | Nc1ccc(-c2ccccc2)cc1NC(=O)c1cn(Cc2ccc(Oc3ccccc3)cc2)nn1
0 | Nc1ccc(-c2cccs2)cc1NC(=O)c1cccc(-c2cn(Cc3ccc(OC(F)(F)F)cc3)nn2)c1
12 | Nc1ccc(-c2ccccc2)cc1NC(=O)c1cn(CCc2ccccc2)nn1
25 | Nc1ccc(-c2ccsc2)cc1NC(=O)CCc1cn(Cc2nc3ccccc3[nH]2)nn1
6 | Nc1ccc(-c2ccc(F)cc2)cc1NC(=O)c1cn(CC(=O)c2ccccc2)nn1
0 | Nc1ccc(-c2ccsc2)cc1NC(=O)CCc1cn(CCc2ccccc2C(F)(F)F)nn1
4 | COc1ccc(Cn2cc(-c3ccc(C(=O)Nc4cc(-c5cccs5)ccc4N)cc3)nn2)cc1
0 | Nc1ccc(-c2ccccc2)cc1NC(=O)c1cn(CCc2cccc([N+](=O)[O-])c2)nn1
0 | Nc1ccc(-c2ccsc2)cc1NC(=O)CCc1cn(Cc2cccc(C(=O)O)c2)nn1
0 | Nc1ccc(-c2ccsc2)cc1NC(=O)c1cn(CCc2ccc(F)cc2)nn1
14 | Cc1ccccc1CCn1cc(CCC(=O)Nc2cc(-c3ccsc3)ccc2N)nn1

inhibition [%] | SMILES
0 | Nc1ccc(-c2ccccc2)cc1NC(=O)c1cn(CCc2ccc(Cl)cc2)nn1
5 | Nc1ccc(-c2cccs2)cc1NC(=O)c1cn(CCc2ccccc2C(F)(F)F)nn1
39 | Nc1ccc(-c2ccc(F)cc2)cc1NC(=O)CCc1cn(Cc2ccc(C(=O)O)cc2)nn1
1 | Nc1ccc(-c2ccccc2)cc1NC(=O)c1cn(Cc2ccc3ccccc3c2)nn1
16 | Cc1ccc(CCn2cc(C(=O)Nc3cc(-c4cccs4)ccc3N)nn2)cc1
0 | Nc1ccc(-c2ccc(F)cc2)cc1NC(=O)c1cn(CCc2cccc(F)c2)nn1
0 | Nc1ccc(-c2ccsc2)cc1NC(=O)c1cn(CCc2ccc(C(F)(F)F)cc2)nn1
0 | Nc1ccc(-c2cccs2)cc1NC(=O)c1cccc(-c2cn(Cc3ccc(Oc4ccccc4)cc3)nn2)c1
0 | Nc1ccc(-c2ccsc2)cc1NC(=O)c1cn(Cc2ccc(OC(F)(F)F)cc2)nn1
7 | Nc1ccc(-c2ccc(F)cc2)cc1NC(=O)c1cn(-c2ccc(I)cc2)nn1
8 | Nc1ccc(-c2ccsc2)cc1NC(=O)c1cn(CC(=O)Nc2ccc(F)cc2)nn1
6 | COc1ccc(Cn2cc(C(=O)Nc3cc(-c4ccccc4)ccc3N)nn2)cc1
21 | COc1ccc(CCn2cc(C(=O)Nc3cc(-c4cccs4)ccc3N)nn2)cc1
30 | COc1ccc(CCn2cc(-c3ccc(C(=O)Nc4cc(-c5cccs5)ccc4N)s3)nn2)cc1
0 | Nc1ccc(-c2ccsc2)cc1NC(=O)c1cn(CCC2CCCCC2)nn1
0 | Nc1ccc(-c2ccc(F)cc2)cc1NC(=O)c1cn(CCc2ccc(F)cc2)nn1
17 | Nc1ccc(-c2ccc(F)cc2)cc1NC(=O)c1cn(CCc2ccccc2)nn1

From ChEMBL document CHEMBL5390237, “Discovery of Selective Histone Deacetylase 1 and 2 Inhibitors: Screening of a Focused Library Constructed by Click Chemistry, Kinetic Binding Analysis, and Biological Evaluation” (J Med Chem, 2023)
